The text below walks through data of patent US20220226397A1, “SYNERGISTIC COMBINATIONS OF ARGININE-PRODUCING BACTERIA AND/OR AMMONIA-CONSUMING BACTERIA AND CHECKPOINT INHIBITORS AND METHODS OF USE THEREOF” (Synlogic Operating Company, Inc., priority 2019, published 2022).

This test has as its system MC38 tumors. Kind of test: MC38 tumor growth and survival, oral L-arginine with or without αPD-L1. In kind it is in vivo, C57BL/6 WT mice. To be noted: s.c. MC38; L-arginine 2 g/kg oral gavage daily; αPD-L1 200 μg i.p. every second day; compared to control group. The procedure: FIGS. 1A, 1B, and 1C: 5×10^5 MC38 colon adenocarcinoma cells were injected s.c. in C57BL/6 WT mice and tumors were allowed to grow for 11 days before treatments were initiated. Control mice (n=13) received daily an oral gavage of H2O (100 μl) and every second day 200 μl of PBS i.p. The L-arginine group received daily an oral gavage of L-arginine (2 g/kg body weight in 100 μl) (n=19). The PD-L1 group received 200 μg of αPD-L1 mAb i.p. every second day (n=16). The Combo group received L-arginine (oral) and αPD-L1 (i.p.) (n=17). FIG. 1A depicts in vivo MC38 tumor growth (number of mice are indicated in the graph). Values represent mean tumor volume +/− SEM. FIG. 1C: Survival curves of different groups of mice. P values were determined by log-rank comparisons between the curves. FIG. 1B provide tumor growth curves of individual mice. P values were determined by two way ANOVA. *P<0.05, **P<0.01, ***P<0.001, ****P<0.0001, throughout.
MC38 murine colon adenocarcinoma cells were cultured in RPMI 1640 plus 10% heat-inactivated FCS, 1 mM Na-Pyruvate and 50 μM β-mercaptoethanol. Female C57BL/6 mice between the ages of 5 to 10 weeks were implanted with the MC38 cells. […] The size of tumors was measured in a blinded fashion using calipers. […] Tumors were collected, digested and tumor-infiltrating lymphocytes (TILs) were analyzed by flow cytometry.

For the compound `N=C(N)NCCC[C@H](N)C(=O)O` [L-arginine], the MC38 tumor growth result is “slightly reduced”.
